Where a name gives a salt, the structure may show the parent alone.
Structure (SMILES)	melting point [°C]
CC(C)(C)OC(=O)N[C@H](Cc1cccc(OC(F)(F)C(F)F)n1)[C@@H](O)c1ccc(F)cc1 (racemic) [Example 238, tert-butyl (1RS,2SR)-2-(4-fluorophenyl)-2-hydroxy-1-{[6-(1,1,2,2-tetrafluoroethoxy)pyridin-2-yl]methyl}ethylcarbamate]	109 to 110
O=C(NC(Cc1ccc(C(F)(F)F)cc1)C(O)c1ccc(F)cc1)C1CCCCC1 (racemic) [Example 8, N-[2-(4-fluorophenyl)-2-hydroxy-1-[[4-(trifluoromethyl)phenyl]methyl]ethyl]cyclohexanecarboxamide]	161 to 178
O=C(N[C@H](Cc1ccc(C(F)(F)F)cc1)[C@@H](O)c1ccc(F)cc1)c1cccc2c1OCCCO2 (racemic) [Example 113, N-[(1RS,2SR)-2-(4-fluorophenyl)-2-hydroxy-1-[4-(trifluoromethyl)benzyl]ethyl]-3,4-dihydro-2H-1,5-benzodioxepine-6-carboxamide]	155 to 156
COc1ccc([C@H](O)[C@@H](Cc2cccc(OC(F)(F)C(F)F)c2)NC(=O)c2cccc3c2C=CCCC3)cc1 (racemic) [Example 242, N-{(1RS,2SR)-2-hydroxy-2-(4-methoxyphenyl)-1-[3-(1,1,2,2-tetrafluoroethoxy)benzyl]ethyl}-6,7-dihydro-5H-benzo[a][7]annulene-1-carboxamide]	151 to 152
COC(=O)c1ccc([C@@H](O)[C@H](Cc2cccc(OC(F)(F)C(F)F)c2)NC(=O)c2cccc3c2C=CCCC3)cc1 (racemic) [Example 309, methyl 4-[(1RS,2SR)-2-[(6,7-dihydro-5H-benzo[a]cyclohepten-1-ylcarbonyl)amino]-1-hydroxy-3-[3-(1,1,2,2-tetrafluoroethoxy)phenyl]propyl]benzoate]	137 to 138
O=C(N[C@H](Cc1ccc(C(F)(F)F)cc1)[C@@H](O)c1ccc(F)cc1)c1cccc2c1OCC2 (racemic) [Example 77, N-((1RS,2SR)-2-(4-fluorophenyl)-2-hydroxy-1-((4-(trifluoromethyl)phenyl)methyl)ethyl)-2,3-dihydro-1-benzofuran-7-carboxamide]	121 to 122
O=C(N[C@H](Cc1ccc(C(F)(F)F)cc1)[C@@H](O)c1ccc(F)cc1)c1ccc2c(c1)OCO2 (racemic) [Example 72, N-((1RS,2SR)-2-(4-fluorophenyl)-2-hydroxy-1-((4-(trifluoromethyl)phenyl)methyl)ethyl)-1,3-benzodioxole-5-carboxamide]	180 to 181
O=C(N[C@H](Cc1ccc(C(F)(F)F)cc1)[C@@H](O)c1ccc(F)cc1)c1ccc([C@@H]2O[C@@H]2c2ccc(Cl)cc2)cc1 (racemic) [Example 93, 4-[cis-3-(4-chlorophenyl)oxiran-2-yl]-N-[(1RS,2SR)-2-(4-fluorophenyl)-2-hydroxy-1-[4-(trifluoromethyl)benzyl]ethyl]benzenecarboxamide]	162 to 166
O=C(CCCCc1ccccc1)N[C@H](Cc1ccc(C(F)(F)F)cc1)[C@@H](O)c1ccc(F)cc1 (racemic) [Example 99, N-((1RS,2SR)-2-(4-fluorophenyl)-2-hydroxy-1-((4-(trifluoromethyl)phenyl)methyl)ethyl)-5-phenylpentanamide]	152 to 153
O=C(N[C@H](Cc1cccc(OC(F)(F)C(F)F)n1)[C@@H](O)c1ccc(F)cc1)c1cccc2c1C=CCCC2 (racemic) [Example 239, N-((1RS,2SR)-2-(4-fluorophenyl)-2-hydroxy-1-{[6-(1,1,2,2-tetrafluoroethoxy)pyridin-2-yl]methyl}ethyl)-6,7-dihydro-5H-benzo[a][7]annulene-1-carboxamide]	134 to 135
O=C(NC(Cc1ccc(C(F)(F)F)cc1)C(O)c1ccc(F)cc1)c1ccc(C(F)(F)F)cc1 (racemic) [Example 12, N-[2-(4-fluorophenyl)-2-hydroxy-1-[[4-(trifluoromethyl)phenyl]methyl]ethyl]-4-(trifluoromethyl)benzamide]	167 to 169
O=C(CCCc1ccccc1)N[C@H](Cc1ccccc1C(F)(F)F)[C@@H](O)c1ccc(F)cc1 (racemic) [Example 143, N-((1RS,2SR)-2-(4-fluorophenyl)-2-hydroxy-1-((2-(trifluoromethyl)phenyl)methyl)ethyl)-4-phenylbutyramide]	161 to 162

Continued, values first:

melting point [°C]	Structure (SMILES)
205 to 210	O=C(N[C@H](Cc1ccc(C(F)(F)F)cc1)[C@@H](O)c1ccc(Oc2ccccc2)cc1)c1ccc(F)c2ccccc12 (racemic) [Example 209, N-((1RS,2SR)-2-hydroxy-2-(4-phenoxyphenyl)-1-((4-(trifluoromethyl)phenyl)methyl)ethyl)-4-fluoro-1-naphthalenecarboxamide]
200 to 201	O=C(N[C@H](Cc1ccccc1C(F)(F)F)[C@@H](O)c1ccc(F)cc1)c1ccc(F)c2ccccc12 (racemic) [Example 141, 4-fluoro-N-((1RS,2SR)-2-(4-fluorophenyl)-2-hydroxy-1-((2-(trifluoromethyl)phenyl)methyl)ethyl)-1-naphthalenecarboxamide]
220 to 221	O=C(N[C@H](Cc1ccc(C(F)(F)F)cc1)[C@@H](O)c1ccc(F)cc1)c1cc(Cl)cc2ccccc12 (racemic) [Example 76, 3-chloro-N-[(1RS,2SR)-2-(4-fluorophenyl)-2-hydroxy-1-[4-(trifluoromethyl)benzyl]ethyl]naphthalene-1-carboxamide]
196 to 197	O=C(O)CCC(=O)O[C@H](c1ccc(F)cc1)[C@H](Cc1ccc2c(c1)OC(F)(F)C(F)(F)O2)NC(=O)c1ccc(F)c2ccccc12 (racemic) (as salt: succinate) [Example 396, (1RS,2SR)-1-(4-fluorophenyl)-2-[(4-fluoro-1-naphthoyl)amino]-3-(2,2,3,3-tetrafluoro-2,3-dihydro-1,4-benzodioxin-6-yl)propyl hydrogen succinate]
185 to 186	O=C(N[C@H](Cc1ccc(C(F)(F)F)cc1)[C@@H](O)c1ccc(F)cc1)c1cccc2c1C(=O)c1ccccc1-2 (racemic) [Example 85, N-((1RS,2SR)-2-(4-fluorophenyl)-2-hydroxy-1-((4-(trifluoromethyl)phenyl)methyl)ethyl)-9-oxo-9H-fluorene-1-carboxamide]
170 to 180	O=C(NC(Cc1ccc(C(F)(F)F)cc1)C(O)c1ccc(F)cc1)c1ccc(Cl)cc1 (racemic) [Example 9, 4-chloro-N-[2-(4-fluorophenyl)-2-hydroxy-1-[[4-(trifluoromethyl)phenyl]methyl]ethyl]benzamide]
231 to 232	O=C(N[C@H](Cc1ccc(C(F)(F)F)cc1)[C@@H](O)c1ccc(F)cc1)c1cccc2c1-c1ccccc1C2=O (racemic) [Example 61, N-((1RS,2SR)-2-(4-fluorophenyl)-2-hydroxy-1-((4-(trifluoromethyl)phenyl)methyl)ethyl)-9-oxo-9H-fluorene-4-carboxamide]
185 to 186	O=C(N[C@H](Cc1cccc(OC(F)(F)C(F)F)c1)[C@@H](O)c1cccc(F)n1)c1ccc(F)c2ccccc12 (racemic) [Example 266, 4-fluoro-N-{(1RS,2RS)-2-(6-fluoropyridin-2-yl)-2-hydroxy-1-[3-(1,1,2,2-tetrafluoroethoxy)benzyl]ethyl}-1-naphthamide]
151 to 152	O=C(CCc1ccccc1)N[C@H](Cc1ccc(C(F)(F)F)cc1)[C@@H](O)c1cccc(F)c1 (racemic) [Example 178, N-((1RS,2SR)-2-(3-fluorophenyl)-2-hydroxy-1-((4-(trifluoromethyl)phenyl)methyl)ethyl)-3-phenylpropanamide]
198 to 199	COc1ccc(C[C@@H](NC(=O)c2cccc3ccccc23)[C@@H](O)c2ccc(F)cc2)cc1 (racemic) [Example 148, N-((1RS,2SR)-2-(4-fluorophenyl)-2-hydroxy-1-((4-(methyloxy)phenyl)methyl)ethyl)-1-naphthalenecarboxamide]
172 to 173	O=C(N[C@H](Cc1cccc(CC(F)(F)C(F)F)c1)[C@@H](O)c1ccc(F)cc1)c1ccc(F)c2ccccc12 (racemic) [Example 339, 4-fluoro-N-[(1RS,2SR)-2-(4-fluorophenyl)-2-hydroxy-1-[3-(2,2,3,3-tetrafluoropropyl)benzyl]ethyl]naphthalene-1-carboxamide]
165 to 167	CC(C)c1cccc(C[C@@H](NC(=O)c2cccc3c2C=CCCC3)[C@@H](O)c2ccc(F)cc2)c1 (racemic) [Example 323, N-[(1RS,2SR)-2-(4-fluorophenyl)-2-hydroxy-1-(3-isopropylbenzyl)ethyl]-6,7-dihydro-5H-benzo[a]cycloheptene-1-carboxamide]
58	CC(C)(C)c1ccc(C(=O)NC(Cc2ccc(C(F)(F)F)cc2)C(O)c2ccc(F)cc2)cc1 (racemic) [Example 19, 4-tert-butyl-N-[2-(4-fluorophenyl)-2-hydroxy-1-[[4-(trifluoromethyl)phenyl]methyl]ethyl]benzamide]
76 to 78	CC(C)(C)c1cccc(C[C@@H](NC(=O)c2ccc(F)c3ccccc23)[C@@H](O)c2cccc(Cl)c2)c1 (racemic) [Example 369, N-[(1RS,2SR)-1-[3-(tert-butyl)benzyl]-2-(3-chlorophenyl)-2-hydroxyethyl]-4-fluoro-1-naphthamide]
128 to 129	CC(C)(C)COc1cccc(C[C@@H](NC(=O)c2cccc3c2C=CCCC3)[C@@H](O)c2cccc(Cl)c2)c1 (racemic) [Example 368, N-[(1RS,2SR)-1-[3-(neopentyloxy)benzyl]-2-(3-chlorophenyl)-2-hydroxyethyl]-6,7-dihydro-5H-benzo[a]cycloheptene-1-carboxamide]
248 to 249	N#Cc1ccc(C[C@@H](NC(=O)c2ccc(F)c3ccccc23)[C@@H](O)c2ccc(F)cc2)cc1 (racemic) [Example 153, N-[(1RS,2SR)-1-(4-cyanobenzyl)-2-(4-fluorophenyl)-2-hydroxyethyl]-4-fluoronaphthalene-1-carboxamide]
192 to 193	O=C(N[C@H](Cc1cccc(OCC(F)(F)F)c1)[C@@H](O)c1ccc(F)cc1)c1ccc(F)c2ccccc12 (racemic) [Example 170, N-((1RS,2SR)-2-(4-fluorophenyl)-2-hydroxy-1-((3-(2,2,2-trifluoroethoxy)phenyl)methyl)ethyl)-4-fluoro-1-naphthalenecarboxamide]
